Measured values as given in paper PMC6352937, “Inhibition of protein phosphatase-1 and -2A by ellagitannins: structure-inhibitory potency relationships and influences on cellular systems” (Journal of Enzyme Inhibition and Medicinal Chemistry, 2019).
One block for each compound: values may come before it.

Tests used:
[1] = target: PP1c; test: Protein phosphatase assay with 32P-MLC20, native PP1c; type: biochemical; conditions: native PP1c from rabbit skeletal muscle; 1 µM 32P-MLC20; 10 min preincubation; mean ± SD
Procedure: (§1) Protein phosphatase activity of either skeletal muscle PP1c or PP2Ac (1.9–2.2 nM), or rPP1cα or rPP1cδ (2.71–3.72 nM), or FLAG-MYPT1-PP1c (∼9 nM) was assayed at 30 °C in absence or presence of polyphenol compounds (0.1–100 µM) in 20 mM Tris/HCl (pH 7.4), 0.1% 2-mercaptoethanol (30 µL). The purified phosphatase samples or HeLa lysates in 300-fold dilution (1.8–3.6 µg/ml) in the presence or absence of 2 µM I2 were preincubated with increasing concentration of the polyphenol compounds (0–100 µM) for 10 min then the reaction was started by the addition of 1 µM ^32P-MLC20 and incubated for 10 min. Polyphenol-treated HeLa cells were washed then lysed in 50 mM Tris/HCl (pH 8.0), 150 mM NaCl, 1% (V/V) Triton X-100, 0.15% (w/v) protease inhibitor cocktail. The phosphatase activity was assayed with 1 µM ^32P-MLC20 for 30 s in 3-fold final dilution (0.24–0.43 mg/ml). The reactions were terminated by the addition of 200 µL of 10% trichloroacetic acid and 200 µL of 6 mg/mL BSA solution. The samples were centrifuged for 3 min at 10,000 rpm and the supernatants (370 µL) were transferred into scintillation vials and the radioactivity of the released ^32Pi was determined in Tri-Carb 2800TR scintillation counter.
(§2) The ellagitannins (Figure 1) assayed on the activity of PP1c or PP2Ac in this study are similar to PGG in composition, but they differ structurally in two important aspects: (i) all of them include hexahydroxydiphenoyl unit linked in various positions, except for pedunculagin which includes two of these linkages; (ii) tellimagrandin I, pedunculagin, and praecoxin B have free glycosidic hydroxyls, while GHG has an unmodified hydroxyl at position 3 of the glucopyranose ring. […] Inhibition of the phosphatase activity by ellagitannins in HeLa cell lysate was also assessed. First, we determined the activity of PP1 and PP2A in the lysates using I2 to inhibit PP1, and low concentration of OA (2 nM) to suppress PP2A specifically, in order to determine the contribution of PP1 and PP2A to the phosphatase activity of lysates (Figure 2(E)).
(§3) Figure 2. The effect of ellagitannins on the activity of PP1 and PP2A. Ellagitannins (0.1–100 µM) were preincubated with the phosphatase samples for 10 min and the phosphatase activity was determined in triplicates with 1 µM ^32P-MLC20 substrate as described in “Materials and methods” section. […] The effect of tellimagrandin I on the activity of rPP1cα (^) and rPP1cδ (●) (C), or FLAG-MYPT1-PP1cδ (▼) (D), or on the phosphatase activity of HeLa lysate in the presence of I2 (□) (F). The effect of I2 and OA on the phosphatase activity of HeLa lysate (E). Phosphatase activity in the absence of ellagitannins, I2 or OA was taken as 100%. Data are means ± SD (n = 3–5).

[2] = target: PP2Ac; test: Protein phosphatase assay with 32P-MLC20, native PP2Ac; type: biochemical; conditions: native PP2Ac from rabbit skeletal muscle; 1 µM 32P-MLC20; 10 min preincubation; mean ± SD
Procedure: as §1, §2, §3

[3] = test system: HeLa lysate; test: Phosphatase activity of HeLa cell lysate (32P-MLC20); type: biochemical, human; conditions: HeLa lysate in 300-fold dilution; 1 µM 32P-MLC20; mean ± SD
Procedure: as §1, §2, §3

[4] = target: T1, rPP1cα (Homo sapiens, UniProt P62136); test: Protein phosphatase assay, recombinant rPP1cα; type: biochemical; conditions: purified recombinant FLAG-tagged PP1cα
T1 construct: FLAG; made in house
Procedure: as §1, with “The reactions were terminated by the addition of 200 µL of 10% trichloroacetic acid and 200 µL of 6 mg/mL BSA solution.” left out
(§4) Figure 2. […] Ellagitannins (0.1–100 µM) were preincubated with the phosphatase samples for 10 min and the phosphatase activity was determined in triplicates with 1 µM ^32P-MLC20 substrate as described in “Materials and methods” section. […]

[5] = target: T2, rPP1cδ (Homo sapiens, UniProt P62140); test: Protein phosphatase assay, recombinant rPP1cδ; type: biochemical; conditions: purified recombinant hexahistidine-tagged PP1cδ
T2 construct: hexahistidine; made in house
Procedure: as §1, with “The reactions were terminated by the addition of 200 µL of 10% trichloroacetic acid and 200 µL of 6 mg/mL BSA solution.” left out
as §4

[6] = target: T3, FLAG-MYPT1-PP1cδ complex (Homo sapiens, UniProt P62140); test: Protein phosphatase assay, myosin phosphatase holoenzyme; type: biochemical; conditions: holoenzyme ~9 nM
T3 construct: its associated proteins (such as PP1cδ) were isolated from cell lysates; expressed in transfected cells; host or cells: tsA201 cells
Procedure: as §1, with “The reactions were terminated by the addition of 200 µL of 10% trichloroacetic acid and 200 µL of 6 mg/mL BSA solution.” left out
as §4

[7] = test system: PP2A; test: Phosphatase activity of HeLa lysate in the presence of I2 (activity due to PP2A); type: biochemical, human; conditions: PP1 suppressed by 2 µM I2; up to the highest concentration applied (100 µM)
Procedure: as §1, with “Polyphenol-treated HeLa cells were washed then lysed in 50 mM Tris/HCl (pH 8.0), 150 mM NaCl, 1% (V/V) Triton X-100, 0.15% (w/v) protease inhibitor cocktail. The phosphatase activity was assayed with 1 µM ^32P-MLC20 for 30 s in 3-fold final dilution (0.24–0.43 mg/ml). The reactions were terminated by the addition of 200 µL of 10% trichloroacetic acid and 200 µL of 6 mg/mL BSA solution.” left out
as §2, with “First, we determined the activity of PP1 and PP2A in the lysates using I2 to inhibit PP1, and low concentration of OA (2 nM) to suppress PP2A specifically, in order to determine the contribution of PP1 and PP2A to the phosphatase activity of lysates (Figure 2(E)).” left out

[8] = target: T1, rPP1cα; test: Isothermal titration calorimetry (ITC); type: binding; conditions: 25 °C
Procedure: Isothermal titration calorimetry (ITC) experiments were carried out at 25 °C by a MicroCal ITC200 instrument. The assay buffer contains 25 mM Tris/HCl (pH 8.0), 100 mM NaCl, and 1 mM DTT. rPP1cα was dialysed in the assay buffer two times for two hours freshly prior to measurements and diluted to 5–10 µM then transferred into the sample cell of the calorimeter. Tellimagrandin I was diluted to 60–100 µM in the assay buffer and measured into the syringe. 18 times 2 µL ligand was then injected into the cell at a stirring rate of 300 rpm. The reference power was 5 µcal/sec and the assay buffer was loaded in the reference cell. The titration data were analysed with MicroCal ITC-Origin software using one sets of site model to obtain binding parameters of ligand-protein interaction.
(§5) Figure 3. […] The changes in either, the intrinsic fluorescence of unlabelled rPP1cα upon binding to tellimagrandin I and PGG, or changes in fluorescent signal from rPP1cα extrinsically labelled with NT647 dye upon binding with EGCG, were determined at a range of concentration of polyphenols, and the fractions bound are presented. Data points are means ± SD (n = 3).

[9] = target: T2, rPP1cδ; test: Surface plasmon resonance (SPR); type: binding; conditions: rPP1cδ immobilised on CM5 chip; 1:1 interaction model
[10] = target: T1, rPP1cα; test: Microscale thermophoresis (MST); type: binding
Procedure: as §5

[11] = test system: HeLa cells; test: HeLa cell viability, Alamar-blue assay; type: cell-based, human; conditions: 24 h incubation, serum free; 0-50 µM tested
Procedure: HeLa cells and tsa201 cells were cultured as recommended by the supplier. Prior to treatments HeLa cells were serum starved in MEM medium supplemented with 2 mM L-glutamine for 17 h. For phosphatase activity assay cells were treated with increasing concentration of polyphenol compounds (1–50 µM) for 1 h. To assess cell viability by Alamar-blue assay serum starved cells were treated with ellagitannins (1–50 µM) for 24 h in serum free MEM medium. The media was exchanged for resazurin (20 µM) containing serum free media and the cells were incubated for 2 h to enhance resorufin formation by the viable cells. The emission of resorufin was measured by a fluorimeter at 620 nm.
Figure 4. Distinct influence of ellagitannins on the survival and phosphatase activity of HeLa cells. The effect of tellimagrandin I and mahtabin A was assayed on the survival (A) and the phosphatase activity (B) of HeLa cells in 0–50 µM concentration range as detailed in Materials and methods. The cell survival and the phosphatase activity in the absence of ellagitannins were taken as 100%. Data represent means ± SD (n = 3). ANOVA *p < .05, **p < .01, ***p < .001, n.s.: not significant.

[12] = test system: HeLa cells; test: Phosphatase activity of polyphenol-treated HeLa cells; type: cell-based, human; conditions: 1 h incubation; 0-50 µM tested
Procedure: as §1
HeLa cells and tsa201 cells were cultured as recommended by the supplier. […] The emission of resorufin was measured by a fluorimeter at 620 nm. […]

[13] = test system: SNAP-25^Thr138; test: Phosphorylation of SNAP-25 Thr138 in cortical synaptosomes (Western blot); type: cell-based, mouse; conditions: synaptosomes treated 45 min at 30 °C; ellagitannins 1-100 µM, TMC 10 µM
Procedure: (§6) Preparation of synaptosomes from murine brain cortex was carried out as described previously. Functional synaptosomes were kept in Krebs buffer (118 mM NaCl, 5 mM KCl, 25 mM NaHCO3, 1 mM MgCl2, 10 mM D-glucose, pH 7.4). After preparation, synaptosomes were treated with either tellimagrandin I or mahtabin A in 1, 10 or 100 µM final concentrations, or with 10 µM tautomycetin (TMC) for 45 min at 30 °C. After the treatments synaptosomes were applied for exocytosis assay or were lysed and the protein lysates were subjected to Western blot. For exocytosis assay an already established protocol[25] was used. FM 2–10 water-soluble styryl dye was incorporated first into the outer leaflet of synaptosome membrane, then into the synaptosomes. Exocytosis was induced by addition of 30 mM KCl to the synaptosomes. The fluorescent intensity of FM 2–10 styryl dye negatively correlated with the extent of synatposomal exocytosis and was measured by Fluoroskan FL (excitation: 488 nm, emission: 540 nm). Western blot of synaptosome proteins was carried out as described previously[24]^,[25].
Figure 5. […] E: Representative Western blot with anti- SNAP-25^pThr138 specific antibody. F: Relative changes in the amount of SNAP-25^pThr138 determined by densitometry of the Western blots normalised on the bands obtained for the loading controls. Data are means ± SD (n = 3). ANOVA *p < .05, **p < .01, ***p < .001, n.s.: not significant.

[14] = test system: mouse cortical synaptosomes; test: KCl induced exocytosis of cortical synaptosomes (FM 2-10 dye); type: cell-based; conditions: 30 mM KCl; FM 2-10 fluorescence; 45 min treatment
Procedure: as §6
Figure 5. […] E: Representative Western blot with anti- SNAP-25^pThr138 specific antibody. F: Relative changes in the amount of SNAP-25^pThr138 determined by densitometry of the Western blots normalised on the bands obtained for the loading controls. Data are means ± SD (n = 3). […]

T1 sequence (P62136 whole entry): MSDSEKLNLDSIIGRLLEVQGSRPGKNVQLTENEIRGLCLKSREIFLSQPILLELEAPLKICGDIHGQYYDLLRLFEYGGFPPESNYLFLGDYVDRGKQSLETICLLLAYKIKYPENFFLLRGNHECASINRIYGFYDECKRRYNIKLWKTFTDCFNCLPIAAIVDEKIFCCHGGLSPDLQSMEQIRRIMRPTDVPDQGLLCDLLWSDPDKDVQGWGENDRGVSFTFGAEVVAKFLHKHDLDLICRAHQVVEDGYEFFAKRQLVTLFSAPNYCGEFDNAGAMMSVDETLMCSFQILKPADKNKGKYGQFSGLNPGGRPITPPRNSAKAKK
T2 sequence (P62140 whole entry): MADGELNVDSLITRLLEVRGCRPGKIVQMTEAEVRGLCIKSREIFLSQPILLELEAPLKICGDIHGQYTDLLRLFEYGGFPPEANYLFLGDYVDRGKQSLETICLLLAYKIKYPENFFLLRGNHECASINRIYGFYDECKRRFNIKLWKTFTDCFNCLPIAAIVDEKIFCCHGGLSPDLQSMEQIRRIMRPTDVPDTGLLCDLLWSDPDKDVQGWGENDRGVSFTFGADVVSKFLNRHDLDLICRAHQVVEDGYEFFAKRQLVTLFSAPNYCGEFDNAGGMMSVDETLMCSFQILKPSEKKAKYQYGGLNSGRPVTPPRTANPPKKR
T3 sequence (P62140 2-327 limits assumed): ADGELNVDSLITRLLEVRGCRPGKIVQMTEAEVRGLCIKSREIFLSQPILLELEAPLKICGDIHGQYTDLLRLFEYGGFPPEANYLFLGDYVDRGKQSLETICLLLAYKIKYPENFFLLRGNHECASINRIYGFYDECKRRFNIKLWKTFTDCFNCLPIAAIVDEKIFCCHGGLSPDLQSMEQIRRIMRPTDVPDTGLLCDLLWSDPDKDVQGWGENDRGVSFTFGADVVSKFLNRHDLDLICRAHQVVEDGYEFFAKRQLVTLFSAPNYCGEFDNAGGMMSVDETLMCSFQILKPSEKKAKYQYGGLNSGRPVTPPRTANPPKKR
T3 sequence (O14974 whole entry partner): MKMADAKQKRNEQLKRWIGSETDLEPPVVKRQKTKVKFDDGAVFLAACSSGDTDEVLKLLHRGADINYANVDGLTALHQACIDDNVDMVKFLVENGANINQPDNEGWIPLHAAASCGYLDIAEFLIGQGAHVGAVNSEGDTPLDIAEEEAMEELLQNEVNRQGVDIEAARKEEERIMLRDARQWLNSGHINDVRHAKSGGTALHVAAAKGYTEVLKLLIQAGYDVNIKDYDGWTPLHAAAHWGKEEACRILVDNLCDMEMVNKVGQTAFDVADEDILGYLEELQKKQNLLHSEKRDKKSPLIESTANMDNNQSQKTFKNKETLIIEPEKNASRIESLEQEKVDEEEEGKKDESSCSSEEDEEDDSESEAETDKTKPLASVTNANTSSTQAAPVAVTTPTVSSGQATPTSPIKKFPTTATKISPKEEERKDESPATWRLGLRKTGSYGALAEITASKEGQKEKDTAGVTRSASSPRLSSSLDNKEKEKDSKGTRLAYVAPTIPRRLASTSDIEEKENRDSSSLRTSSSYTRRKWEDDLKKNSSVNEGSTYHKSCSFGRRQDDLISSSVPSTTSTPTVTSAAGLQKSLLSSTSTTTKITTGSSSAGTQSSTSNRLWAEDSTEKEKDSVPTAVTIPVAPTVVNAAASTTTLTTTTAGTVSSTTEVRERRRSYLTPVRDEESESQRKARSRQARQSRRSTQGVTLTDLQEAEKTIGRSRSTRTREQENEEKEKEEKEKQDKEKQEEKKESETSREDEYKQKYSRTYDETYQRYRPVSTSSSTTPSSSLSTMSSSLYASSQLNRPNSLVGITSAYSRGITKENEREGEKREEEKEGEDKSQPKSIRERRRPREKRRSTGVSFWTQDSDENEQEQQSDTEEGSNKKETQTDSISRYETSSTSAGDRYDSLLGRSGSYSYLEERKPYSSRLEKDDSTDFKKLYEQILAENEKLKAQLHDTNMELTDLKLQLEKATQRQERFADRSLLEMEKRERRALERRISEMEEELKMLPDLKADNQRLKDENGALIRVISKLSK

IC50 [1]: 790 ± 110 nM | IC50 [2]: 63900 ± 5520 nM | IC50 [3]: 6970 ± 1120 nM
Compound: O=C(OC[C@H]1OC(O)[C@@H]2OC(=O)c3cc(O)c(O)c(O)c3-c3c(cc(O)c(O)c3O)C(=O)O[C@H]2[C@@H]1OC(=O)c1cc(O)c(O)c(O)c1)c1cc(O)c(O)c(O)c1 (stereo partly shown) [praecoxin B]

Compound: O=C(O[C@H]1[C@@H]2OC(=O)c3cc(O)c(O)c(O)c3-c3c(cc(O)c(O)c3O)C(=O)OC[C@H]2OC(O)[C@@H]1OC(=O)c1cc(O)c(O)c(O)c1)c1cc(O)c(O)c(O)c1 (stereo partly shown) [tellimagrandin I]
IC50 [1]: 200 ± 20 nM | IC50 [2]: 19500 ± 8600 nM | IC50 [3]: 4460 ± 950 nM | IC50 [4]: 230 ± 50 nM | IC50 [5]: 130 ± 20 nM | IC50 [6]: 110 ± 20 nM | Inhibition of phosphatase activity due to PP2A in HeLa lysate [7]: slightly | Ka (ITC) [8]: 4.68 ± 1.02x10^6 M^−1 | S (ITC) [8]: 0.0036 kcal/mol/K | N (ITC) ([8]; binding stoichiometry): 1.16 ± 0.03 | Kd ([8]; one sets of site model): 230 nM | Kd [9]: 310 nM | Kd ([10]; unlabelled rPP1cα, intrinsic fluorescence (NT.LabelFree)): 1780 ± 590 nM | Effect on viability (survival) of HeLa cells [11]: suppressed the viability of HeLa cells dramatically | Effect on phosphatase activity of HeLa cells [12]: partially reduced the phosphatase activity | Effect on phosphorylation level of SNAP-25^Thr138 [13]: had no any effect | Effect on KCl induced synaptosomal exocytosis [14]: without any influence

Kd ([10]; rPP1cα labelled with NT-647 (NT.115)): 8200 ± 4300 nM
Compound: epigallocatechin-3-gallate [EGCG]

Compound: tautomycetin [TMC, reference compound]
Effect on phosphorylation level of SNAP-25^Thr138 [13]: increased the amount of SNAP-25^pThr138
